Measurements reported in patent US10662210B2, “Compositions and methods comprising osmium for the treatment of cancers” (Massachusetts Institute of Technology, priority 2014, dated 2020).
Where two headings read alike, the source gives them in different places.

Legend:
Format in all cases: cell-based, human
[1] = system: A2780 (ovarian); assay: Cytotoxicity MTT assay; conditions: for IC50: MTT, 72 h
Experimental: (§1) The anti-proliferative properties of 1-4 against a panel of human cancer cell lines were assessed by the MTT [3-(4,5-dimethylthiazol-2-yl)-2,5-diphenyltetrazolium bromide] assay. Cisplatin was included as a control. The IC50 values, concentrations required to induce 50% viability, were derived from dose-response curves and are summarized in Table 1.
(§2) A549 lung adenocarcinoma, HeLa cervical cancer, and MRC5 normal human fetal lung fibroblast cell lines were maintained in Dulbecco's Modified Eagle's Medium (DMEM-low glucose) supplemented with 10% fetal bovine serum and 1% penicillin/streptomycin. The cisplatin-sensitive A2780 ovarian cancer and the cisplatin-resistant A2780/CP70 ovarian cancer cell lines were cultured in RPMI (glutamine free) media supplemented with 10% fetal bovine serum and 1% penicillin/streptomycin. All cells were grown at 310 K in a humidified atmosphere containing 5% CO2.
(§3) The colorimetric MTT assay was used to determine the toxicity of the osmium complexes and cisplatin. Cells (2×10^3) were seeded in each well of a 96-well plate. After incubating the cells overnight, various concentrations of test compound (0.3-100 μM) were added and incubated for 72 h (total volume 200 μL). The test compounds were prepared as 10 mM solutions in DMSO and diluted using media. The final concentration of DMSO in each well was 0.5% and this amount was present in the untreated control as well. Cisplatin was prepared as a 5 mM solution in PBS and diluted further using media. After 72 h, the medium was removed, 200 μL of a 0.4 mg/mL solution of MTT in DMEM or RPMI was added, and the plate was incubated for an additional 1-2 h. The DMEM/MTT or RPMI/MTT mixture was aspirated and 200 μL of DMSO was added to dissolve the resulting purple formazan crystals. The absorbance of the solution wells was read at 550 nm. Absorbance values were normalized to DMSO-containing control wells and plotted as concentration of test compound versus % cell viability. IC50 values were interpolated from the resulting dose dependent curves. The reported IC50 values are the average from at least three independent experiments, each of which consisted of six replicates per concentration level.

[2] = system: A2780/CP70 (ovarian); assay: Cytotoxicity MTT assay; conditions: 72 h, cisplatin-resistant
Experimental: as §1, §2, §3

[3] = system: A549 (lung); assay: Cytotoxicity MTT assay; conditions: 72 h
Experimental: as §1, §2, §3

[4] = system: HeLa (cervical); assay: Cytotoxicity MTT assay; conditions: 72 h
Experimental: as §1, §2, §3

[5] = system: MRC-5 (lung normal); assay: Cytotoxicity MTT assay; conditions: 72 h
Experimental: as §1, §2, §3

[6] = system: phosphorylated H2AX (γH2AX), CHK2, CHK1, p53 (Ser15) in A2780 cells; assay: Immunoblotting analysis, DNA damage pathway; conditions: 72 hours
Experimental: To gain further insight into the modes of action of 2 and 4, immunoblotting analyses were conducted to monitor changes in expression of biomarkers related to the DNA damage pathway (FIG. 8). […] This difference could be related to steric effects imposed by the phenyl groups in 4.
A2780 cells (5×10^5 cells) were incubated with the osmium complexes (concentrations, μM) for 72 h at 37° C. Cells were washed with PBS, scraped into SDS-PAGE loading buffer (64 mM Tris-HCl (pH6.8)/9.6% glycerol/2% SDS/5% β-mercaptoethanol/0.01% Bromophenol Blue), and incubated at 95° C. for 10 min. Whole cell lysates were resolved by 4-20% sodium dodecylsulphate polyacylamide gel electrophoresis (SDS-PAGE; 200 V for 25 min) followed by electro transfer to polyvinylidene difluoride membrane, PVDF (350 mA for 1 h). Membranes were blocked in 5% (w/v) non-fat milk in PBST (PBS/0.1% Tween 20) and incubated with the appropriate primary antibodies (Cell Signalling Technology and Santa Cruz). After incubation with horseradish peroxidase-conjugated secondary antibodies (Cell Signalling Technology), immune complexes were detected with the ECL detection reagent (BioRad) and analyzed using an Alpha Innotech ChemiImager™ 5500 fitted with a chemiluminescence filter.

[7] = system: A2780 cells; assay: Cytotoxicity MTT assay with pathway and cell death inhibitors; conditions: for IC50: 72 hours incubation; for effect of chloroquine and IM-54 on potency: inhibitors 10 μM; for effect of p53 inhibitors on toxicity: pifithrin-α and pifithrin-μ, both 10 μM
Experimental: This finding led to the investigation of the possibility that 4 may induce endoplasmic reticulum (ER) stress. Co-administration of 4 and salubrinal (10 μM), a known ER stress inhibitor, reduced the cytotoxicity of 4 in A2780 cells. […] To further validate the ER as the main target for 4, the expression of proteins related to the unfolded protein response (UPR) was monitored. […] ER membrane expansion is widely associated with ER stress. With this fact in mind the ER size of A2780 cells upon incubation with 4 were examined using fluorescence microscopy. Relative to untreated controls (FIG. 3B), cells exposed to 4 (10 μM) for 4 h had 25.1% larger ER coverage (FIG. 3C). The ER size relative to the whole cell of the untreated controls was about 30% and the ER size relative to the whole cell of the treated samples was about 55%.
Having established the intracellular targets of 2 and 4, the role of p53, a cell cycle and apoptosis regulator, in the cellular responses evoked was investigated. […] Therefore, p53 played a fundamental role in coordinating the cellular response to 2-induced DNA damage. […] (FIG. 13). […] To relate p53 to potency, cytotoxicity studies were conducted in the presence of p53 inhibitors pifithrin-α and pifithrin-μ. (both 10 μM). […] The IC50 values of compound 2 in the absence and presence of p53 inhibitor pifithrin-μ after 72 hours incubation was about 2 μM and about 30 μM, respectively.
as §3
For specific pathway and cell death inhibitor assays, inhibitors of p53 (pifithrin-α, 10 μM and pifithrin-μ, 10 μM), ER stress (salubrinal, 10 μM), necrosis (IM-54, 10 μM), and autophagocytosis (chloroquine, 10 μM) were added to cells and incubated for 0-1 h prior to treatment with the test compounds.

SMILES	higher potency for A2780 than for normal lung fibroblast MRC5 ([1]; A2780 vs MRC5) [fold]	IC50 [1] [µM]	IC50 [2] [µM]	IC50 [3] [µM]	IC50 [4] [µM]	IC50 [5] [µM]	expression of DNA damage pathway biomarkers [6]	IC50 ([7]; read-out: IC50 in the absence of pifithrin-α) [µM]	IC50 ([7]; read-out: IC50 in the absence of pifithrin-μ) [µM]	effect of chloroquine and IM-54 on potency [7]	IC50 ([7]; pifithrin-α 10 μM, read-out: IC50 in the presence of pifithrin-α) [µM]	effect of p53 inhibitors on toxicity [7]	IC50 ([7]; pifithrin-μ 10 μM, read-out: IC50 in the presence of pifithrin-μ) [µM]	effect of salubrinal on toxicity ([7]; salubrinal 10 μM)	IC50 increase on co-administration of salubrinal compared to compound alone ([7]; salubrinal 10 μM) [fold]
[N]#[Os]1([Cl])([Cl])([Cl])[N]2C=CC=c3ccc4c(c32)[N]1C=CC=4 [Complex 2, OsN(1,10-phenanthroline)Cl3]	8	1.99 ± 0.23	2.96 ± 0.23	7.86 ± 1.41	6.95 ± 0.53	16.6 ± 3.61	marked increase in expression of the phosphorylated forms of H2AX (γH2AX), CHK2, CHK1, and p53 (Ser15)	~4.5	~2	little effect	~2	increased significantly	~30	limited effect	
[N]#[Os]1([Cl])([Cl])([Cl])[N]2C=CC(c3ccccc3)=c3ccc4c(c32)[N]1C=CC=4c1ccccc1 [Complex 4, OsN(4,7-diphenyl-1,10-phenanthroline)Cl3]		3.36 ± 0.09	3.4 ± 0.28	1.97 ± 0.02	2.86 ± 0.51	8.45 ± 1.21	little signs of DNA damage			little effect		unaffected			13.3
